US20230150974A1 (Foghorn Therapeutics Inc., priority 2020, published 2023)
Counter-ions that a name gives are not always drawn.

Tests used:
[1] = target: T1, HiBiT-BRM (Homo sapiens, UniProt P51531); test: HiBiT-BRM cell-based degradation assay (Nano-Glo HiBiT Lytic Detection); details: HeLa cells expressing HiBiT-BRM, 24 h; for DC50: read-out: BRM HiBit Degradation IC50
T1 construct: expressed in transfected cells
Method in brief: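 HeLa cells stably expressing HiBiT-tagged BRM were treated for 24 h, then lysed with LgBiT-containing Nano-Glo reagent and luminescence read. % degradation scaled between DMSO (high control) and 2 μM reference BRM/BRG1 degrader (low control).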

[2] = target: T2, HiBit-BRG1 (Homo sapiens, UniProt P51532); test: HiBit-BRG1 cell-based degradation assay (Nano-Glo HiBiT Lytic Detection); details: HeLa cells expressing HiBit-BRG1 and LgBit, 24 h; for DC50: read-out: BRG1 HiBit Degradation IC50; for Dmax: read-out: BRG1 HiBit Degradation Maximum (%)
T2 construct: expressed in transfected cells
T2 sequence (P51532 whole entry): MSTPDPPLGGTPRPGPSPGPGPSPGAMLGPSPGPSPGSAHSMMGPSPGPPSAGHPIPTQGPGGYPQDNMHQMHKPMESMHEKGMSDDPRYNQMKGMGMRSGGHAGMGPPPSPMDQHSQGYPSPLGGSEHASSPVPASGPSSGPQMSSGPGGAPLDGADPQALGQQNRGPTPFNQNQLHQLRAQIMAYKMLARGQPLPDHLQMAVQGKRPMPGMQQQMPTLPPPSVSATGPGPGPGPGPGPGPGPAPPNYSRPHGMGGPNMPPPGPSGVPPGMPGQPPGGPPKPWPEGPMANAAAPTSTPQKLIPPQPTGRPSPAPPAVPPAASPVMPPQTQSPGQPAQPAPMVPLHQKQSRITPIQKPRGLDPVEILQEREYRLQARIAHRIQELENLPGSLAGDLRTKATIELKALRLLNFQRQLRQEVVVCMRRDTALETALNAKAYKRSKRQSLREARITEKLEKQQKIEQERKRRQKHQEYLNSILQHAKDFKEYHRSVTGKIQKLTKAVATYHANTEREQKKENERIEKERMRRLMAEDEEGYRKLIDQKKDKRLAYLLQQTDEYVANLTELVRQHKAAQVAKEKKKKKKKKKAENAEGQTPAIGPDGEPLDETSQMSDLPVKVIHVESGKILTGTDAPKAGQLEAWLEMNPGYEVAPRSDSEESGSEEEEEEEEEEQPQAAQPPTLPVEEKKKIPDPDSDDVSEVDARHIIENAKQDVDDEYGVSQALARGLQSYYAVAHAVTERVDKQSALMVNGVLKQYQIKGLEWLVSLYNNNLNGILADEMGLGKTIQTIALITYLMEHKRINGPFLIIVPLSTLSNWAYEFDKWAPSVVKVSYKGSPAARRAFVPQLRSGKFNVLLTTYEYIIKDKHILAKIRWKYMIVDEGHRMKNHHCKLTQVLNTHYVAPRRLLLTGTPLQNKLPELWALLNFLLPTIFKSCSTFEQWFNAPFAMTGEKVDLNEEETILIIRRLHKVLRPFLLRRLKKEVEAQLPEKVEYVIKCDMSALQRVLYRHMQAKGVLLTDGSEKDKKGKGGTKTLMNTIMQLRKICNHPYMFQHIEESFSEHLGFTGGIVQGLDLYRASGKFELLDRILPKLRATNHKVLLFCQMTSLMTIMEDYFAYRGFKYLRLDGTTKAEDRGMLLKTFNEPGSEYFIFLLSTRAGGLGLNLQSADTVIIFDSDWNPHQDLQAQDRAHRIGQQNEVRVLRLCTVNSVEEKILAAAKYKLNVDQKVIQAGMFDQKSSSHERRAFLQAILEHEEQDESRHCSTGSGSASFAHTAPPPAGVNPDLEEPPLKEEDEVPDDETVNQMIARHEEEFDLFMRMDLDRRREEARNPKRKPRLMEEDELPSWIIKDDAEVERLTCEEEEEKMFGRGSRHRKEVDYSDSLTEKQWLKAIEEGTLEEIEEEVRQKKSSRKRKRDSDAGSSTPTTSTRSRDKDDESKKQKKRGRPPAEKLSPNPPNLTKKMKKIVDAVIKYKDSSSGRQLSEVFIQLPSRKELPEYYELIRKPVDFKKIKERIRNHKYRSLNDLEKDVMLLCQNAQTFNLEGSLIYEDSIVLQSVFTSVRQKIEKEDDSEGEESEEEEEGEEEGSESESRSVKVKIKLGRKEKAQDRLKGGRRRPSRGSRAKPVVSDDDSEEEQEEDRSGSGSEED
Method in brief: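 Percent degradation derived from lytic HiBiT signal, normalized to DMSO-treated cells and to cells given 2 μM of a known BRM/BRG1 degrader. The HeLa line stably expressed HiBit-BRG1 and LgBit; treatment lasted 24 h at 5000 cells per well.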

T1 sequence (P51531 whole entry): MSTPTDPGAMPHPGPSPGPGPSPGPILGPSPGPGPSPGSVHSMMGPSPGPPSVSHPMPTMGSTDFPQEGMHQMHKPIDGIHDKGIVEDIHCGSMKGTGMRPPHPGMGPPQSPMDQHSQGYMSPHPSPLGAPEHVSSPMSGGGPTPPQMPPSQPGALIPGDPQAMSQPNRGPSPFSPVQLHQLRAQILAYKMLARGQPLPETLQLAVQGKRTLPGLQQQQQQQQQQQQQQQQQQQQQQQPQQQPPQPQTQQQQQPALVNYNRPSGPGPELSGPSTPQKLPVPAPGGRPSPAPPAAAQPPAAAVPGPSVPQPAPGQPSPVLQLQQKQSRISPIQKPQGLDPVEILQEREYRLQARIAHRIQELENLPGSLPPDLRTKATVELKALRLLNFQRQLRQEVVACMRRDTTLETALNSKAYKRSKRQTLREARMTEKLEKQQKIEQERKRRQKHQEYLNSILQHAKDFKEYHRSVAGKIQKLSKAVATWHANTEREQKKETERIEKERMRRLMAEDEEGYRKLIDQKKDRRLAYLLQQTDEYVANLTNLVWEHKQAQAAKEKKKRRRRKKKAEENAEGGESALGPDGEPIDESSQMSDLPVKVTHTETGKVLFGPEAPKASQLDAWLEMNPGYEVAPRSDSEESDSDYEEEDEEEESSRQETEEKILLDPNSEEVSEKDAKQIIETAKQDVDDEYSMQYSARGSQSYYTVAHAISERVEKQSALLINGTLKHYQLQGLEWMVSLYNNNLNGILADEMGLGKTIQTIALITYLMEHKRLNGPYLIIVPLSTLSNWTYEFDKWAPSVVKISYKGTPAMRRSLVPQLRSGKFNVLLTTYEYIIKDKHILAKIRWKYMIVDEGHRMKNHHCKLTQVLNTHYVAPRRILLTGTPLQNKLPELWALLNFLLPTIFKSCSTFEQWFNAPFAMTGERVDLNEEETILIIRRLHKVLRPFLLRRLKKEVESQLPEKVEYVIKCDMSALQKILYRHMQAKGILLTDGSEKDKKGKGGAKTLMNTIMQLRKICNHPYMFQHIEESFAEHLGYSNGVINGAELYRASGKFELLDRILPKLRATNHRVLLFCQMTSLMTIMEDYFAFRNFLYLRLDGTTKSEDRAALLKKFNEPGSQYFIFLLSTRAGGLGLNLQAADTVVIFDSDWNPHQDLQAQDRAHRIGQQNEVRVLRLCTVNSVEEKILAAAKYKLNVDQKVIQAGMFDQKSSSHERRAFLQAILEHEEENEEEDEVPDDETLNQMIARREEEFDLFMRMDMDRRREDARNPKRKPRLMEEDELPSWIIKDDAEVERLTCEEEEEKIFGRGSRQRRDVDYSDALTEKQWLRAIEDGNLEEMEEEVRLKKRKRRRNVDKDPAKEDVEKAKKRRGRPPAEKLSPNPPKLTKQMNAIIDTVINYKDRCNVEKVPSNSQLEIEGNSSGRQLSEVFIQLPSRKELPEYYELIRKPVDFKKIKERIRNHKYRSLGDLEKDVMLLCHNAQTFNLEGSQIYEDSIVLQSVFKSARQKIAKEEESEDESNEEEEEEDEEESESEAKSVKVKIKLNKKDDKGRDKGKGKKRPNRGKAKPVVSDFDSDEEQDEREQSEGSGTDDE

DC50 [1] [nM] | DC50 [2] [nM] | Dmax [2] [%] | Compound | BRM HiBit Degradation Maximum (%) [1]
> 1000 | > 1000 | < 50 | CN(CCCCCOc1cccc2c1C(=O)N(C1CCC(=O)NC1=O)C2=O)Cc1ccc(CCN(C)c2cc(-c3ccccc3O)nnc2N)cc1 (centres unmarked) [Compound 145, 4-((5-((4-(2-((3-amino-6-(2-hydroxyphenyl)pyridazin-4-yl)(methyl)amino)ethyl)benzyl)(methyl)amino)pentyl)oxy)-2-(2,6-dioxopiperidin-3-yl)isoindoline-1,3-dione formate] | C (“C” indicates maximum degradation <50%)
> 1000 | > 1000 | < 50 | Cc1ncsc1-c1ccc(CNC(=O)[C@@H]2C[C@@H](O)CN2C(=O)[C@@H](NC(=O)CCN2CC(CC(=O)NCc3ccc(CCOc4cc(-c5ccccc5O)nnc4N)cc3)C2)C(C)(C)C)cc1 [Compound 183, (2S,4R)-1-[(2S)-2-(3-[3-[([[4-(2-[[3-amino-6-(2-hydroxyphenyl)pyridazin-4-yl]oxy]ethyl)phenyl]methyl]carbamoyl)methyl]azetidin-1-yl]propanamido)-3,3-dimethylbutanoyl]-4-hydroxy-N-[[4-(4-methyl-1,3-thiazol-5-yl)phenyl]methyl]pyrrolidine-2-carboxamide] | C (“C” indicates maximum degradation <50%)
< 10 | > 100 | > 50 | Cc1ncsc1-c1ccc([C@H](C)NC(=O)[C@@H]2C[C@@H](O)CN2C(=O)[C@@H](c2cc(OCCN3CCC(OC4CCN(C(=O)c5ccc(CCOc6cc(-c7ccccc7O)nnc6N)cc5)CC4)CC3)no2)C(C)C)cc1 [Compound 210, (2S,4R)-1-((R)-2-(3-(2-(4-((1-(4-(2-((3-amino-6-(2-hydroxyphenyl)pyridazin-4-yl)oxy)ethyl)benzoyl)piperidin-4-yl)oxy)piperidin-1-yl)ethoxy)isoxazol-5-yl)-3-methylbutanoyl)-4-hydroxy-N-((S)-1-(4-(4-methylthiazol-5-yl)phenyl)ethyl)pyrrolidine-2-carboxamide] | A (“A” indicates maximum degradation ≥75%)
> 10 | > 1000 | < 50 | Cc1ncsc1-c1ccc(CNC(=O)[C@@H]2C[C@@H](O)CN2C(=O)[C@@H](NC(=O)CCCCCCCCCCCCCCCC(=O)NCc2ccc(CCOc3cc(-c4ccccc4O)nnc3N)cc2)C(C)(C)C)cc1 [Compound 32, N1-(4-(2-((3-amino-6-(2-hydroxyphenyl)pyridazin-4-yl)oxy)ethyl)benzyl)-N17-((S)-1-((2S,4R)-4-hydroxy-2-((4-(4-methylthiazol-5-yl)benzyl)carbamoyl)pyrrolidin-1-yl)-3,3-dimethyl-1-oxobutan-2-yl)heptadecanediamide] | A (“A” indicates maximum degradation ≥75%)
> 10 | > 1000 | < 50 | Cc1ncsc1-c1ccc([C@H](C)NC(=O)[C@@H]2C[C@@H](O)CN2C(=O)[C@@H](NC(=O)CCCCCCCCCCCCCC(=O)N(C)Cc2ccc(CCOc3cc(-c4ccccc4O)nnc3N)cc2)C(C)(C)C)cc1 [Compound 197, N1-(4-(2-((3-amino-6-(2-hydroxyphenyl)pyridazin-4-yl)oxy)ethyl)benzyl)-N15-((S)-1-((2S,4R)-4-hydroxy-2-(((S)-1-(4-(4-methylthiazol-5-yl)phenyl)ethyl)carbamoyl)pyrrolidin-1-yl)-3,3-dimethyl-1-oxobutan-2-yl)-N1-methylpentadecanediamide] | A (“A” indicates maximum degradation ≥75%)
> 1000 | > 1000 | < 50 | Nc1nnc(-c2ccccc2O)cc1N1CCN(CC(=O)NC2CCN(CCOc3ccc4c(c3)C(=O)N(C3CCC(=O)NC3=O)C4=O)CC2)CC1 (centres unmarked) [Compound 82, 2-[4-[3-amino-6-(2-hydroxyphenyl)pyridazin-4-yl]piperazin-1-yl]-N-[1-(2-[[2-(2,6-dioxopiperidin-3-yl)-1,3-dioxoisoindol-5-yl]oxy]ethyl)piperidin-4-yl]acetamide] | C (“C” indicates maximum degradation <50%)
> 1000 | > 1000 | < 50 | Nc1nnc(-c2ccccc2O)cc1N1CCN(CCNC(=O)CCCCOc2cccc3c2C(=O)N(C2CCC(=O)NC2=O)C3=O)CC1 (centres unmarked) [Compound 89, N-(2-[4-[3-amino-6-(2-hydroxyphenyl)pyridazin-4-yl]piperazin-1-yl]ethyl)-5-[[2-(2,6-dioxopiperidin-3-yl)-1,3-dioxoisoindol-4-yl]oxy]pentanamide] | C (“C” indicates maximum degradation <50%)
> 10 | > 1000 | < 50 | Cc1ncsc1-c1ccc([C@H](C)NC(=O)[C@@H]2C[C@@H](O)CN2C(=O)[C@@H](NC(=O)CCCCCCCCCCCCCC(=O)NCc2ccc(CCN(C)c3cc(-c4ccccc4O)nnc3N)cc2)C(C)(C)C)cc1 [Compound 255, N1-(4-(2-((3-amino-6-(2-hydroxyphenyl)pyridazin-4-yl)(methyl)amino)ethyl)benzyl)-N15-((S)-1-((2S,4R)-4-hydroxy-2-(((S)-1-(4-(4-methylthiazol-5-yl)phenyl)ethyl)carbamoyl)pyrrolidin-1-yl)-3,3-dimethyl-1-oxobutan-2-yl)pentadecanediamide] | A (“A” indicates maximum degradation ≥75%)
> 10 | > 100 | > 50 | Cc1ncsc1-c1ccc([C@H](C)NC(=O)[C@@H]2C[C@@H](O)CN2C(=O)[C@@H](NC(=O)CCCCCCCCCCCCCCCC(=O)NCc2ccc(CCOc3cc(-c4ccccc4O)nnc3N)cc2)C(C)(C)C)cc1 [Compound 172, N1-(4-(2-((3-amino-6-(2-hydroxyphenyl)pyridazin-4-yl)oxy)ethyl)benzyl)-N17-((S)-1-((2S,4R)-4-hydroxy-2-(((S)-1-(4-(4-methylthiazoi-5-yl)phenyl)ethyl)carbamoyl)pyrrolidin-1-yl)-3,3-dimethyl-1-oxobutan-2-yl)heptadecanediamide] | A (“A” indicates maximum degradation ≥75%)
> 1000 | > 1000 | > 50 | Nc1nnc(-c2ccccc2O)cc1OCCc1ccc(CNC(=O)CCCCNc2ccc3nnn(C4CCC(=O)NC4=O)c(=O)c3c2)cc1 (centres unmarked) [Compound 125, N-(4-(2-((3-amino-6-(2-hydroxyphenyl)pyridazin-4-yl)oxy)ethyl)benzyl)-5-((3-(2,6-dioxopiperidin-3-yl)-4-oxo-3,4-dihydrobenzo[d][1,2,3]triazin-6-yl)amino)pentanamide] | C (“C” indicates maximum degradation <50%)
> 1000 | > 1000 | < 50 | Nc1nnc(-c2ccccc2O)cc1OCCc1ccc(C(=O)NCCC(=O)NCc2ccc(S(=O)(=O)Nc3cccc4c(Cl)c[nH]c34)cc2)cc1 [Compound 17, 3-[[4-(2-[[3-amino-6-(2-hydroxyphenyl)pyridazin-4-yl]oxy]ethyl)phenyl]formamido]-N-([4-[(3-chloro-1H-indol-7-yl)sulfamoyl]phenyl]methyl)propanamide] | C (“C” indicates maximum degradation <50%)
> 1000 | > 1000 | < 50 | Nc1nnc(-c2ccccc2O)cc1OCCc1ccc(CNCCCCCOc2ccc3c(c2)C(=O)N(C2CCC(=O)NC2=O)C3=O)cc1 (centres unmarked) [Compound 116, 5-((5-((4-(2-((3-amino-6-(2-hydroxyphenyl)pyridazin-4-yl)oxy)ethyl)benzyl)amino)pentyl)oxy)-2-(2,6-dioxopiperidin-3-yl)isoindoline-1,3-dione; diformic acid] | C (“C” indicates maximum degradation <50%)
> 10 | > 1000 | < 50 | Cc1ncsc1-c1ccc([C@H](C)NC(=O)[C@@H]2C[C@@H](O)CN2C(=O)[C@@H](NC(=O)CCCCCCCCCCCCC(=O)NCc2ccc(CCOc3cc(-c4ccccc4O)nnc3N)cc2)C(C)(C)C)cc1 [Compound 248, N1-(4-(2-((3-amino-6-(2-hydroxyphenyl)pyridazin-4-yl)oxy)ethyl)benzyl)-N14-((S)-1-((2S,4R)-4-hydroxy-2-(((S)-1-(4-(4-methylthiazol-5-yl)phenyl)ethyl)carbamoyl)pyrrolidin-1-yl)-3,3-dimethyl-1-oxobutan-2-yl)tetradecanediamide] | A (“A” indicates maximum degradation ≥75%)
> 1000 | > 1000 | < 50 | Nc1nnc(-c2ccccc2O)cc1OCCc1ccc(CNC(=O)C2CC2CNC(=O)COc2cccc3c2C(=O)N(C2CCC(=O)NC2=O)C3=O)cc1 (centres unmarked) [Compound 7, N-[[4-(2-[[3-amino-6-(2-hydroxyphenyl)pyridazin-4-yl]oxy]ethyl)phenyl]methyl]-2-[(2-[[2-(2,6-dioxopiperidin-3-yl)-1,3-dioxoisoindol-4-yl]oxy]acetamido)methyl]cyclopropane-1-carboxamide] | C (“C” indicates maximum degradation <50%)

Compound | DC50 [1] [nM] | DC50 [2] [nM] | Dmax [2] [%] | BRM HiBit Degradation Maximum (%) [1]
Nc1nnc(-c2ccccc2O)cc1OCCc1ccc(CNC(=O)CCCCCCCCCNc2ccc3c(c2)C(=O)N(C2CCC(=O)NC2=O)C3=O)cc1 (centres unmarked) [Compound 75, N-(4-(2-((3-amino-6-(2-hydroxyphenyl)pyridazin-4-yl)oxy)ethyl)benzyl)-10-((2-(2,6-dioxopiperidin-3-yl)-1,3-dioxoisoindolin-5-yl)amino)decanamide] | > 1000 | > 1000 |  | C (“C” indicates maximum degradation <50%)
